Laboratory results taken from patent US7153824B2, “Inhibitors of phosphodiesterases in infertility” (Applied Research Systems ARS Holding N.V., priority 2003, dated 2006).
Entries after “also recorded” stand apart in the source; their conditions may differ.

Assays:
[1] = system: Immature Sprague Dawley CD (SD) BR female rats; assay: In vivo Rat Follicle Maturation Assay (ovulated oocytes after r-hCG); details: for ovulatable oocytes compared with high dose of FSH alone: 0.4 mg/kg combined with low dose of FSH; for effect on FSH-induced follicle maturation: in vivo, with FSH
PDE1 = details: cited from earlier work
PDE3 = details: cited from earlier work
PDE5 = PDE5 (Homo sapiens, UniProt O76074); details: cited from earlier work
[2] = system: Immature Sprague Dawley CD (SD) BR female rats; assay: Histological count of secondary and antral follicles in rat ovaries; type: in vivo
[3] = test compound 1 mg/kg×4 injections s.c. in NP3S with Low Dose FSH
[4] = test compound 1 mg/kg×4 s.c. in NP3S with Low Dose FSH
[5] = test compound 5 mg/kg×4 injections s.c. in NP3S with Low Dose FSH
[6] = test compound 5 mg/kg×4 s.c. in NP3S with Low Dose FSH
[7] = test compound 25 mg/kg×4 injections s.c. in NP3S with Low Dose FSH
[8] = test compound 25 mg/kg×4 s.c. in NP3S with Low Dose FSH
[9] = test compound 5 mg/kg×4 s.c. in aqueous vehicle with Low Dose FSH

## COc1ccc([C@H](Cc2ccncc2)c2ccccc2)cc1OC1CCCC1 [CDP840]
[1]
  Follicular growth activity with Low FSH?: Inhibits follicular growth

## O=C(Nc1c(Cl)cncc1Cl)c1ccc(OC(F)F)c(OCC2CC2)c1 [Roflumilast]
[1]
  ovulatable oocytes compared with high dose of FSH alone: produces more ovulatable oocytes than even the high dose of FSH alone
  effect on FSH-induced follicle maturation: increased FSH-induced follicle maturation

## COc1ccc([C@]2(C#N)CC[C@@H](C(=O)O)CC2)cc1OC1CCCC1 [ARIFLO (Cilomilast), Cilomilast]
[1]
  Follicular growth activity with Low FSH?: Inhibits follicular growth

## CN1CC(=O)N2[C@H](c3ccc4c(c3)OCO4)c3[nH]c4ccccc4c3C[C@@H]2C1=O [Tadalafil, (6R,12aR)-2,3,6,7,12,12a-hexahydro-2-methyl-6-(-3,4-methylenedioxyphenyl)pyrazino[2′,1′:6,1]pyrido[3,4-b]indole-1,4-dione]
[1]; test compound 25 mg/kg×4 s.c. in water with Low Dose FSH
  average number of oocytes per rat: 16
[1]
  Follicular growth activity with Low FSH?: YES
PDE1
  IC50: > 30000 nM

## CCCOc1ccccc1-c1nc2nn[nH]c2c(=O)[nH]1 [Zaprinast]
[1]; [3]
  average number of oocytes per rat: 3.25
[1]; [4]
  rats ovulated: 6 out of 10
[1]; [5]
  average number of oocytes per rat: 6.4
[1]; [6]
  rats ovulated: 9 out of 10
[1]; [7]
  average number of oocytes per rat: 9.5
[1]; [8]
  rats ovulated: 10 out of 10
[1]
  Follicular growth activity with Low FSH?: YES
PDE1
  IC50: 9400 nM
PDE3
  IC50: > 100000 nM

## COc1ccc(C(=O)Nc2c(Cl)cncc2Cl)cc1OC1CCCC1 [Piclamilast]
[1]
  ovulatable oocytes compared with high dose of FSH alone: produces more ovulatable oocytes than even the high dose of FSH alone
  effect on FSH-induced follicle maturation: increased FSH-induced follicle maturation
[1]; 2 mg/kg, without co-administration of FSH
  follicle maturation, compound alone: did induce follicle maturation; also recorded: increased the hCG ovulatable oocytes
[1]; 0.08 and 0.4 mg/kg, absence of exogenous FSH
  follicle maturation, compound alone: not sufficient to induce follicle maturation
[1]; in the presence of low doses of FSH
  follicle maturation (number of ovulatable oocytes): very marked induction in follicle maturation

## 5′-Methyl-2′(biphenylylmethyl)-3′-(phenylmethyl)spiro[cyclopentane-1,7′(8′h)-[3H]imidazo[2,1-b]purin]-4(5′h)-one [Compound no. 33]
[1]; [7]
  average number of oocytes per rat: 27
[1]
  Follicular growth activity with Low FSH?: YES
PDE1
  IC50: 0.6 nM
PDE5
  IC50: 200 nM

## CCCc1nn(C)c2c(=O)[nH]c(-c3cc(S(=O)(=O)N4CCN(C)CC4)ccc3OCC)nc12 [Sildenafil, 5-[2-ethoxy-5-(4-methyl-1-piperazinylsulphonyl)phenyl]-1-methyl-3-n-propyl-1,6-dihydro-7H-pyrazolo[4,3-d]pyrimidin-7-one]
[1]; 1, 5 and 25 mg/kg×4 s.c. in aqueous vehicle with Low Dose FSH
  number of ovulated oocytes per rat as compared to Low Dose FSH alone plus aqueous vehicle control: dose-related increase
[1]; [3]
  average number of oocytes per rat: 3.5
[1]; [4]
  rats ovulated: 6 out of 8
[1]; [5]
  average number of oocytes per rat: 5.5
[1]; [6]
  rats ovulated: 5 out of 8
[1]; [9]
  average number of oocytes per rat: 20
  rats ovulated: 7 out of 8
[1]; [7]
  average number of oocytes per rat: 6.9
[1]; [8]
  rats ovulated: 7 out of 8
[1]
  Follicular growth activity with Low FSH?: YES
[2]; Low FSH + 75 mg/kg Sildenafil
  total number of antral follicles per rat (2 ovaries): 7.4
[2]; Low FSH + 75 mg/kg Sildenafil (25 mg/kg×3)
  total number of secondary follicles per rat (2 ovaries): 84
PDE1
  IC50: 260 nM
PDE3
  IC50: […]

## (6aR,9aS)-2-(Biphenylylmethyl)-5,6a,7,8,9,9a-hexahydro-5-methyl-3(phenylmethyl)cyclopent[4,5]imidazo-[2,1-b]purin-4(3H)-one [Compound no. 31]
[1]; [7]
  average number of oocytes per rat: 18
[1]
  Follicular growth activity with Low FSH?: YES
PDE1
  IC50: 0.07 nM
PDE5
  IC50: 305 nM

## OCCN(CCO)c1nc(N2CCCCC2)c2nc(N(CCO)CCO)nc(N3CCCCC3)c2n1 [Dipyridamole]
[1]; [3]
  average number of oocytes per rat: 7.5
[1]; [4]
  rats ovulated: 7 out of 10
[1]; [5]
  average number of oocytes per rat: 6.8
[1]; [6]
  rats ovulated: 6 out of 10
[1]; [7]
  average number of oocytes per rat: 6.2
[1]; [8]
  rats ovulated: 10 out of 10
[1]
  Follicular growth activity with Low FSH?: YES

## CCCOc1cc([C@]2(C)CNC(=O)O2)ccc1OC [Mesopram]
[1]; 0.032, 0.016, 0.08 mg/kg together with a low dose of FSH, significance at 0.08 mg/kg
  follicular maturation, lower dose series: dose dependent increase in follicular maturation
[1]; 0.08, 0.4, and 2 mg/kg/day together with a low dose of FSH
  follicular maturation versus low FSH alone: significant enhancement of follicular maturation
[1]; higher doses of the 0.08-2 mg/kg/day series, with low dose FSH
  follicular maturation at higher doses: decrease in follicular maturation
